Read-outs that look alike come from different tables or passages of the source.
Tests used:
[1] = test system: T1, Chimeric Hxt11/2; assay: […] sugar uptake by yeast cells, filtration; assay type: cell-based, Saccharomyces cerevisiae; conditions: labelled compound, mineral medium, strain DS68625
T1 construct: single-chain fusion: Hxt11 residues 1-54 replace Hxt2 residues 1-49, rest is Hxt2; untagged, pRS313-P7T7; expressed in S. cerevisiae DS68625 (hxt1-7, gal2 deleted)

[2] = test system: T1, Chimeric Hxt11/2; assay: […] sugar uptake by yeast cells, filtration; assay type: cell-based, Saccharomyces cerevisiae; conditions: labelled compound; 0.5-500 mM xylose, 1 min uptake, mineral medium, strain DS68625; Hxt2 numbering; read-out: K m (mM) / Xylose

Compound: OC[C@H]1OC(O)[C@H](O)[C@@H](O)[C@@H]1O (stereo partly drawn) [D-glucose]
- Km ([1]; 0.1-500 mM glucose, 15 s uptake, read-out: K m (mM) / Glucose): 17.4 ± 3.8 mM

Compound: OC1OC[C@@H](O)[C@H](O)[C@H]1O (stereo partly drawn) [D-xylose]
- Km ([1]; 0.5-500 mM xylose, 1 min uptake, read-out: K m (mM) / Xylose): 69 ± 9.1 mM
- Km [2]: 57.3 ± 5.2 mM

— publication PMC5575463, “The amino‐terminal tail of Hxt11 confers membrane stability to the Hxt2 sugar transporter and improves xylose fermentation in the presence of acetic acid” (Biotechnology and Bioengineering, 2017)
